Experimental data as given in patent US20240360135A1, “IMIDAZO[1,2-B]PYRIDAZINYL COMPOUNDS AND USES THEREOF” (Sumitomo Pharma Oncology, Inc., priority 2021, published 2024).

Columns and labels:
PIM2 = molecular target: T1, PIM2 (Homo sapiens, UniProt Q9P1W9); test: RBC HotSpot kinase inhibition assay, PIM2; format: biochemical
T1 construct: purchased Invitrogen PR6347B
Experimental: (§1) Reagents. Base Reaction Buffer: 20 mM Hepes (pH 7.5), 10 mM MgCl2, 1 mM EGTA, 0.01% Brij35, 0.02 mg/ml BSA, 0.1 mM Na3VO4, 2 mM DTT, 1% DMSO. The following kinases were used in the assay at the indicated concentrations:
(§2) The following substrates were used in combination with the indicated kinases in the assay at the indicated concentration:
(§3) No cofactors were added to any of the reactions.
(§4) • 1. Prepared substrate in freshly prepared Reaction Buffer. • 2. Delivered kinase into the substrate solution and gently mixed. • 3. Delivered test compound in 100% DMSO into the kinase reaction mixture by Acoustic technology (Echo550; nanoliter range), incubated for 20 minutes at room temperature. • 4. Delivered ^33P-ATP into the reaction mixture to initiate the reaction. • 5. Incubated for 2 hours at room temperature. • 6. Detected kinase activity by P81 filter-binding method.
(§5) The results of the RBC HotSpot™ kinase assay are set forth in Table 1, wherein “A” indicates an IC50<10 nM, “B” indicates an IC50 wherein 10 nM≤IC50≤100 nM, and “C” indicates an IC50>100 nM.

PIM1 = molecular target: T2, PIM1 (Homo sapiens, UniProt P11309); test: RBC HotSpot kinase inhibition assay, PIM1; format: biochemical
T2 construct: purchased Invitrogen PV3503
Experimental: as §1, §2, §3, §4, §5

PIM3 = molecular target: T3, PIM3 (Homo sapiens, UniProt Q86V86); test: RBC HotSpot kinase inhibition assay, PIM3; format: biochemical
T3 construct: purchased Millipore 14-738
Experimental: as §1, §2, §3, §4, §5

A549 cells = test: Wound healing assay in A549 cells with TGF-β; format: cell-based; conditions: Homo sapiens; wound healing, A549, 5 ng/ml TGF-β, 24 h; read-out: IC50 (μM) 24 h
From the text: Overview. Epithelial to mesenchymal transition (EMT) is used to describe epithelial cells losing their cell to cell adhesion and polarity while gaining migratory and invasive properties. The process of EMT is required for normal embryonic development and wound healing, but has also been implicated in fibrosis. In humans, TGF-β signaling is the main driver of EMT, and inhibiting this pathway may be beneficial in various diseases such as fibrosis. A wound healing assay was used to study cell migration and cell-cell interaction, and probe the EMT properties of lung epithelial cells (A549) in presence of Compound 2 or Compound 4.
Procedure. A549 cells (ATCC, CCL-185) were seeded into the ImageLock plate (Essen Bioscience) at 2×10^4 cells/well in 100 μL of complete growth media. Cells were incubated overnight at 37° C., 5% CO2. The next day, cells were washed with 1×PBS and Compound 2, Compound 4, DMSO control (±TGF-β) or galunisertib (TGF-β inhibitor used as positive control) was added to the cells in a serum-free F12K media (0.2% DMSO final, 10 μM starting concentration, 3-fold dilution, 8-doses) in presence of 5 ng/ml TGF-β. Cells were incubated for 48 hours (until they reached confluency) at 37° C., 5% CO2. Wounds were simultaneously created using a WoundMaker™ (Essen Bioscience). Debris and non-attached cells were removed by gently washing once with F12K.
Test compound or control compound and TGF-β were added to the cells in F12K+10% FBS as previously described. The ImageLock plate was put into IncuCyteS3 instrument installed inside a 5% CO2 incubator. The plate was allowed to equilibrate in the IncuCyteS3 instrument for 15 minutes prior to scheduling the first scan and data recording. The plate was incubated for 72 hours at 37° C., and wound closure was recorded in real time with the IncuCyte S3 imaging system. Percentage of relative wound density was quantitatively calculated by the IncuCyte software.

mouse psoriasis models = conditions: cited from earlier work

T2 sequence (P11309 whole entry): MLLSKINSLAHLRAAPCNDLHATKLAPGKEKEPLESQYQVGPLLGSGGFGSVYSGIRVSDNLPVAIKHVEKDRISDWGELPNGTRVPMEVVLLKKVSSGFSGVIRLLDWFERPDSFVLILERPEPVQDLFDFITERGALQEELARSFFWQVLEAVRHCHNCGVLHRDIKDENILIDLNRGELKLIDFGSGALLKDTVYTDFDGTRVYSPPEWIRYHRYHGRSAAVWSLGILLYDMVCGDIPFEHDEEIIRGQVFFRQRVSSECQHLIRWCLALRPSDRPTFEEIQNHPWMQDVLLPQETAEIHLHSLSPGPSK
T1 sequence (Q9P1W9 whole entry): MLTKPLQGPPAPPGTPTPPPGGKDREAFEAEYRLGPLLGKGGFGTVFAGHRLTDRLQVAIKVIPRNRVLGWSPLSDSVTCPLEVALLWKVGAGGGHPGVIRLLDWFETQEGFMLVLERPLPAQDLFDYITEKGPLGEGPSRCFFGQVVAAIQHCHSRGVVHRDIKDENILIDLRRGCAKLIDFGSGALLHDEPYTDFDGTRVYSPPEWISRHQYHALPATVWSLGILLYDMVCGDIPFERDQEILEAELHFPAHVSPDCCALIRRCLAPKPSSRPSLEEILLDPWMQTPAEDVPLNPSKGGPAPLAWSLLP

Structure (SMILES)	IC50 (PIM2) [nM]	IC50 (PIM1) [nM]	IC50 (PIM3) [nM]	IC50 (A549 cells) [µM]	epidermal thickening (mouse psoriasis models)	vascularization (mouse psoriasis models)
CCc1cc(-c2cnc3ccc(NC45CCC(O)(CC4)C5)nn23)n[nH]1 [Compound 7, 4-((3-(5-ethyl-1H-pyrazol-3-yl)imidazo[1,2-b]pyridazin-6-yl)amino)bicyclo[2.2.1]heptan-1-ol]	> 100	10 to 100	10 to 100			
Cc1cccc(-c2nn3c(c2-c2ccnc4ccc(C(N)=O)cc24)CCC3)n1 [Galunisertib, galunisertib, reference compound]				> 10		
CCc1cc(-c2cnc3ccc(NC45CCC(C(C)(C)O)(CC4)CC5)nn23)n[nH]1 [Compound 6, 2-(4-((3-(5-ethyl-1H-pyrazol-3-yl)imidazo[1,2-b]pyridazin-6-yl)amino)bicyclo[2.2.2]octan-1-yl)propan-2-ol]	> 100	< 10	< 10			
Cc1cc(-c2cnc3ccc(NC45CCC(O)(CC4)C5)nn23)n[nH]1 [Compound 1, 4-((3-(5-methyl-1H-pyrazol-3-yl)imidazo[1,2-b]pyridazin-6-yl)amino)bicyclo[2.2.1]heptan-1-ol]	> 100	> 100	> 100			
CN1CCC(CNc2ccc3ncc(-c4cccc(OC(F)(F)F)c4)n3n2)CC1 [SGI-1776]					partial reduction	partial reduction
CCc1cc(-c2cnc3ccc(NC45CCC(O)(CC4)C5)nn23)c[nH]1 [Compound 3, 4-((3-(5-ethyl-1H-pyrrol-3-yl)imidazo[1,2-b]pyridazin-6-yl)amino)bicyclo[2.2.1]heptan-1-ol]	> 100	10 to 100	10 to 100			
OC12CCC(Nc3ccc4ncc(-c5cc(C6CC6)[nH]n5)n4n3)(CC1)C2 [Compound 5, 4-((3-(5-cyclopropyl-1H-pyrazol-3-yl)imidazo[1,2-b]pyridazin-6-yl)amino)bicyclo[2.2.1]heptan-1-ol]	> 100	10 to 100	10 to 100			
